{"source": "patent US7365202B2", "about": "“Polymorphs of an androgen receptor modulator” (Merck & Co., Inc., priority 2005, dated 2008)", "key": {"[1]": {"source_text": "The weight increase was based on the initial total sample weight at 25% RH."}, "[2]": {"biological_target": "T1, rhAR NTD/CTD interaction in CV-1 monkey kidney cells (Macaca mulatta, UniProt Q6QT55)", "T1 construct": "pCBB1 (Gal4DBD-rhARLBD fusion construct expressed under the SV40 early promoter); expressed in transfected cells; host or cells: CV-1 monkey kidney cells", "T1 sequence (Q6QT55 644-895)": "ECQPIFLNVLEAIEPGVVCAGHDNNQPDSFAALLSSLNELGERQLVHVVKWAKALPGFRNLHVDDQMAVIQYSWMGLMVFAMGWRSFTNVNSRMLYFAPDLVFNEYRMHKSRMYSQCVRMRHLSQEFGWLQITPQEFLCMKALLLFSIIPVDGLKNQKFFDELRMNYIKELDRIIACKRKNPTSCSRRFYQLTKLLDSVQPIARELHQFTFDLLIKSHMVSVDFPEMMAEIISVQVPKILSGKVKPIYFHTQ", "assay": "Mammalian two-hybrid assay for ligand-induced interaction of N-terminus and C-terminus domains of the androgen receptor (agonist mode: VIRCON)", "format": "cell-based", "conditions": "at 10 micromolar; read-out: agonist activity (Emax relative to the activity obtained with 3 nM R1881)", "source_text": "Mammalian Two-Hybrid Assay for the Ligand-Induced Interaction of N-Terminus and C-Terminus Domains of the Androgen Receptor (Agonist Mode: VIRCON)\nThis assay assesses the ability of AR agonists to induce the interaction between the N-terminal domain (NTD) and C-terminal domain (CTD) of rhAR that reflects the in vivo virilizing potential mediated by activated androgen receptors. The interaction of NTD and CTD of rhAR is quantified as ligand induced association between a Gal4DBD-rhARCTD fusion protein and a VP16-rhARNTD fusion protein as a mammalian two-hybrid assay in CV-1 monkey kidney cells.\nThe day before transfection, CV-1 cells are trypsinized and counted, and then plated at 20,000 cells/well in 96-well plates or larger plates (scaled up accordingly) in DMEM+10% FCS. […]\nFor each well, 0.4 μL LIPOFECTAMINE Reagent (GIBCO-BRL) is diluted into 4.6 μL OPTI-MEM in a second tube and mixed to form the diluted LIPOFECTAMINE Reagent. […] Forty eight hours later, luciferase activity is measured using LUC-Screen system (TROPIX) following the manufacturer's protocol. […] After incubation for 40 minutes at room temperature, luminescence is directly measured with 2-5 second integration. […]"}, "[3]": {"system": "human AR in MDA-MB-453 cells", "assay": "Trans-Activation Modulation of Androgen Receptor (TAMAR), MMTV-LUC reporter", "format": "cell-based", "method": "Trans-Activation Modulation of Androgen Receptor (TAMAR)\nThis assay assesses the ability of test compounds to control transcription from the MMTV-LUC reporter gene in MDA-MB-453 cells, a human breast cancer cell line that naturally expresses the human AR. The assay measures induction of a modified MMTV LTR/promoter linked to the LUC reporter gene.\n20,000 to 30,000 cells/well are plated in a white, clear-bottom 96-well plate in “Exponential Growth Medium” which consists of phenol red-free RPMI 1640 containing 10%FBS, 4 mM L-glutamine, 20 mM HEPES, 10 ug/mL human insulin, and 20 ug/mL gentamicin. Incubator conditions are 37° C. and 5% CO2. The transfection is done in batch mode. The cells are trypsinized and counted to the right cell number in the proper amount of fresh media, and then gently mixed with the Fugene/DNA cocktail mix and plated onto the 96-well plate. All the wells receive 200 TI of medium+lipid/DNA complex and are then incubated at 37° C. overnight. The transfection cocktail consists of serum-free Optimem, Fugene6 reagent and DNA. The manufacturer's (Roche Biochemical) protocol for cocktail setup is followed. The lipid (Tl) to DNA (Tg) ratio is approximately 3:2 and the incubation time is 20 minutes at room temperature. Sixteen to 24 hrs after transfection, the cells are treated with test compounds such that the final DMSO (vehicle) concentration is <3%. […]"}}, "data": [{"compound": "CN1C(=O)C(F)=C[C@]2(C)[C@H]3CC[C@]4(C)[C@@H](C(=O)NCc5nc6ncccc6[nH]5)CC[C@H]4[C@@H]3CC[C@@H]12", "note": "[Form B, N-(3H-imidazo[4,5-b]pyridin-2-ylmethyl)-2-fluoro-4-methyl-3-oxo-4-aza-5α-androst-1-en-17β-carboxamide]", "values": [{"measurement": "loss of total weight", "setting": "[1]; 25° C., relative humidity decreases from 95% to 5% RH", "result": "about 8%"}, {"measurement": "moisture uptake (weight increase based on initial total sample weight at 25% RH)", "setting": "[1]; from about 25% to about 95% RH at 25° C.", "result": "about 7%"}]}, {"compound": "CN1C(=O)C(F)=C[C@]2(C)C3CC[C@]4(C)[C@@H](C(=O)NCc5nc6cccnc6[nH]5)CC[C@H]4C3CC[C@@H]12", "note": "(stereo partly drawn) [compound of formula I, N-(3H-imidazo[4,5-b]pyridin-2-ylmethyl)-2-fluoro-4-methyl-3-oxo-4-aza-5-alpha-androst-1-en-17-beta-carboxamide]", "values": [{"measurement": "Emax at 10 µM", "setting": "[2]", "result": "< 50", "unit": "%"}, {"measurement": "partial agonist activity (Emax relative to the activity obtained with 100 nM R1881)", "setting": "[3]", "result": "greater than 10%"}]}]}
